Measurements taken from article PMC6222558, “Synthesis and Evolution of Berberine Derivatives as a New Class of Antiviral Agents against Enterovirus 71 through the MEK/ERK Pathway and Autophagy” (Molecules : A Journal of Synthetic Chemistry and Natural …, 2018).

What was measured:
Type in all cases: cell-based, enterovirus 71 (EV71)
[1] = tested on: EV71 H strain (VR-1432, genotype C2); experiment: CPE inhibition assay for anti-EV71, H strain; conditions: Enterovirus A, EV71; Vero cells; CPE; calculated on the organic part; n = 3; read-out: H Strain IC50
Outline: (§1)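 Vero cells infected with 100 × TCID50 EV71 for 1 h at 37 °C in serum-free medium, unbound virus removed, then compounds added for 72 h. IC50 from inhibition of virus-induced CPE; TC50 as concentration giving 50% CPE at 72 h, with selectivity index; crystal violet staining for imaging.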

[2] = tested on: EV71 JS-52 strain (genotype C4); experiment: CPE inhibition assay for anti-EV71, JS-52 strain; conditions: Enterovirus A, EV71; Vero cells; CPE; calculated on the organic part; n = 3; read-out: JS-52 Strain IC50
Outline: as §1

[3] = tested on: EV71 BrCr strain (VR-1775, genotype A); experiment: CPE inhibition assay for anti-EV71, BrCr strain; conditions: Enterovirus A, EV71; Vero cells; CPE; calculated on the organic part; n = 3; read-out: BrCr Strain IC50
Outline: as §1

EV71-induced CPE = experiment: CPE assay with microscopy and crystal violet staining; conditions: 20 μM; Vero cells; better than that of BBR
Protocol: Furthermore, microscopy and crystal violet staining was used to further investigation the anti-EV71 effect of 2d with CPE (cytopathic effect) assay.
The anti-EV71 activities of all tested compounds were detected by the virus-induced CPE assay. Briefly, cells (3 × 10^4 cells/well) were plated into 96-well culture plates and incubated for 16 h. Then, remove the medium and infected cells with EV71 of 100 × TCID50 (50% tissue culture infective doses) in serum-free medium for 1 h at 37 °C. After that, the unbound viruses were removed and various concentrations of tested compounds were supplemented for incubation of another 72 h. […] TC50 defined as the concentration that leads to the 50% of CPE which determined by the same method in 72 h. In addition, the cells were stained the cells were colored with 0.5% crystal violet in 20% ethanol for 15 min at room temperature and the cells were imaged after rinsed with PBS.
Figure 2 The anti-EV71 effect of compound 2d in Vero cells with BBR as a positive control. (A) 2d reduced the EV71-induced CPE. Cells were examined using a microscopy (×40); (B) 2d reduced the EV71-induced CPE. Cells were examined using crystal violet staining; (C) 2d reduced the expression of EV71 VP1 RNA by one-step qRT-PCR assay. ** p < 0.001 * p < 0.05; (D) 2d reduced the expression of EV71 VP1 protein by western blot assay.

EV71 VP1 RNA = EV71 VP1 RNA by one-step qRT-PCR in infected Vero cells; conditions: Vero cells infected with H strain; 24 h; better than BBR
Protocol: (§2) To further confirm the anti-EV71 activity, the VP1 down-regulatory activity of 2d was examined in Vero cells infected with H strain of EV71, in comparison with that of BBR. […] Accordingly, VP1 capsid protein expression was also analyzed to examine its effect on EV71 biological synthesis.
Vero cells (9 × 10^5 cells/well) were plated into 6-well culture plates and incubated for 16 h. The medium was removed and cells were infected with EV71 for 1 h (H). Various concentrations of compound 2d and BBR were supplemented for incubation of another 24 h. Total RNA of the infected cells was isolated using the RNeasy Mini kit (QIAGEN, Hilden, Germany) and the information of the primer was listed in the Table 2.
One-step qRT-PCR was performed with SuperScript III Platinum SYBR Green One-step RT-PCR Kit (Invitrogen, Carlsbad, CA, USA) using the ABI 7500 Fast real-time PCR system (Applied Biosystems, Carlsbad, CA, USA). PCR assay was carried out in a 25 μL volume and the target fragment amplification was carried out as follows: reverse transcription at 50 °C for 3 min; initial activation of HotStar Taq DNA Polymerase at 95 °C for 10 min; 40 cycles in two steps: 95 °C for 15 s, 60 °C for 30 s.

EV71 VP1 protein = EV71 VP1 protein by western blot in infected Vero cells; conditions: Vero cells infected with H strain; better than BBR at 40 μM
Protocol: as §2
Cells were lysed in the M-PER mammalian protein extraction reagent (Thermo, Rockford, IL, USA) containing halt protease inhibitor single-use cocktail (Thermo). The protein concentration was determined by BCA Protein Assay Kit (Thermo). Equal amount of samples (15 μg proteins) were denatured and applied to sodium dodecyl sulfate-polyacrylamide gel electrophoresis (SDS-PAGE), and then electrophoresis products were transferred to a polyvinylidenefluoride (PVDF) film and blocked by 5% (w/v) milk or BSA at room temperature. An hour later, PVDF membranes were incubated at room temperature with specific primary antibody. After a standard washing, membranes were incubated with horse radish peroxidase (HRP)-labeled secondary antibody. The signals were detected using ECL detection kit (GE Healthcare Life Sciences, Pittsburgh, PA, USA). The primary antibodies used in the experiment included β-actin, p-p44/p42 MAPK, p44/p42 MAPK, p-MEK, MEK, p-JNK, JNK, p-AKT, AKT, PI3KIII, LC3B, Beclin-1 (Cell Signaling Technology, Danvers, MA, USA), and EV71-VP1 (Abnova, Taibei, China). […]

`COc1ccc2cc3[n+](cc2c1OCC(=O)OCc1ccccc1)CCc1cc2c(cc1-3)OCO2` [2d, 2,3-Methylenedioxy-9-benzyloxyformylmethylenoxy-10-methoxyprotoberberine chloride] showed an IC50 [1] of 12.4 µM, an IC50 [2] of 7.12 µM and an IC50 [3] of 8.52 µM. The “reduction of EV71-induced CPE” value (EV71-induced CPE) was “significantly reduce the EV71-induced CPE”, the “VP1 RNA expression” value (EV71 VP1 RNA) was “significantly reduced VP1 RNA expression in a dose-dependently way” and the VP1 protein expression (EV71 VP1 protein) was “obviously down-regulate the expression of VP1 protein in a dose-dependent manner”.
